Assay results from US9487515B2, “Compounds modulating c-fms and/or c-kit activity and uses therefor” (Plexxikon Inc., priority 2006, dated 2016).

Target: c-kit (Homo sapiens, UniProt P10721)
Test: c-kit assays of Examples 40 and 41 (AlphaScreen kinase assays at 10 and 100 μM ATP, 33P-ATP filter assay, M-07e SCF-stimulated proliferation and phosphorylation)

Chain of c-kit (P10721 with tags, fused parts or gaps): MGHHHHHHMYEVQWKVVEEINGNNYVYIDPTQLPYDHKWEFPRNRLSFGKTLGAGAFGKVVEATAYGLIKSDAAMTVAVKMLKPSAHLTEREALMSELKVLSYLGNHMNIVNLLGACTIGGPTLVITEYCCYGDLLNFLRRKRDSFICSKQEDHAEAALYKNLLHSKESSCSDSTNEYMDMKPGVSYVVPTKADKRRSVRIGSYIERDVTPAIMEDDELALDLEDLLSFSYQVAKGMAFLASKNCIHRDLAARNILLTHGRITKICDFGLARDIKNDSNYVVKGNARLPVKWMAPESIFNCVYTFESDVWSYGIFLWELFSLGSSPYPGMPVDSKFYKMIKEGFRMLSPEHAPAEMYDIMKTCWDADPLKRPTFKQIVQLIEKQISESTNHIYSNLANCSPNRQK

Compound	IC50 [nM]
Fc1ccc(CNc2ccc(Cc3c[nH]c4ncccc34)cn2)c(C(F)(F)F)c1 [P-0225, (4-Fluoro-2-trifluoromethyl-benzyl)-[5-(1H-pyrrolo[2,3-b]pyridin-3-ylmethyl)-pyridin-2-yl]-amine]	< 1000
CCOc1ccccc1CNc1ccc(Cc2c[nH]c3ncc(C#N)cc23)cn1 [P-0323, 3-[6-(2-Ethoxy-benzylamino)-pyridin-3-ylmethyl]-1H-pyrrolo[2,3-b]pyridine-5-carbonitrile]	< 1000
CNc1ncccc1CNc1ccc(Cc2c[nH]c3ncccc23)cn1 [P-0385, Methyl-(3-{[5-(1H-pyrrolo[2,3-b]pyridin-3-ylmethyl)-pyridin-2-ylamino]-methyl}-pyridin-2-yl)-amine]	< 1000
Cc1ccc(CNc2ccc(Cc3c[nH]c4ncccc34)cn2)c(F)c1 [P-0368, (2-Fluoro-4-methyl-benzyl)-[5-(1H-pyrrolo[2,3-b]pyridin-3-ylmethyl)-pyridin-2-yl]-amine]	< 1000
COc1ccccc1CNc1ccc(Cc2c[nH]c3ncccc23)cn1 [P-0336, (2-Methoxy-benzyl)-[5-(1H-pyrrolo[2,3-b]pyridin-3-ylmethyl)-pyridin-2-yl]-amine]	< 1000
FC(F)Oc1ccccc1CNc1ccc(Cc2c[nH]c3ncc(Cl)cc23)cn1 [P-0338, [5-(5-Chloro-1H-pyrrolo[2,3-b]pyridin-3-ylmethyl)-pyridin-2-yl]-(2-difluoromethoxy-benzyl)-amine]	< 1000
Clc1cnc2[nH]cc(Cc3sc(NCc4ccccc4)nc3Cl)c2c1 [P-0192, Benzyl-[4-chloro-5-(5-chloro-1H-pyrrolo[2,3-b]pyridin-3-ylmethyl)-thiazol-2-yl]-amine]	< 1000
Fc1c(CNc2ncc(Cc3c[nH]c4ncc(Cl)cc34)cn2)cccc1C(F)(F)F [P-0393, [5-(5-Chloro-1H-pyrrolo[2,3-b]pyridin-3-ylmethyl)-pyrimidin-2-yl]-(2-fluoro-3-trifluoromethyl-benzyl)-amine]	< 1000
FC(F)(F)c1ccc(CNc2ccc(Cc3c[nH]c4ncccc34)c(Cl)n2)cn1 [P-0174, [6-Chloro-5-(1H-pyrrolo[2,3-b]pyridin-3-ylmethyl)-pyridin-2-yl]-(6-trifluoromethyl-pyridin-3-ylmethyl)-amine]	< 1000
Cc1cc(C(=O)Nc2ccc(Cc3c[nH]c4ncccc34)cn2)ccc1F [P-0109, 4-Fluoro-3-methyl-N-[5-(1H-pyrrolo[2,3-b]pyridin-3-ylmethyl)-pyridin-2-yl]-benzamide]	< 1000
COc1ccc(F)cc1CNc1ccc(Cc2c[nH]c3ncccc23)cn1 [P-0366, (5-Fluoro-2-methoxy-benzyl)-[5-(1H-pyrrolo[2,3-b]pyridin-3-ylmethyl)-pyridin-2-yl]-amine]	< 1000
c1cc(CNc2ccc(Cc3c[nH]c4ncccc34)cn2)cc(N2CCOCC2)c1 [P-0126, (3-Morpholin-4-yl-benzyl)-[5-(1H-pyrrolo[2,3-b]pyridin-3-ylmethyl)-pyridin-2-yl]-amine]	< 1000
Fc1nc(NCc2ccc(Cl)cc2)ccc1Cc1c[nH]c2ncc(Cl)cc12 [P-0132, (4-Chloro-benzyl)-[5-(5-chloro-1H-pyrrolo[2,3-b]pyridin-3-ylmethyl)-6-fluoro-pyridin-2-yl]-amine]	< 1000
Fc1cccc(CNc2ccc(Cc3c[nH]c4ncccc34)cn2)c1 [P-0343, (3-Fluoro-benzyl)-[5-(1H-pyrrolo[2,3-b]pyridin-3-ylmethyl)-pyridin-2-yl]-amine]	< 1000
N#Cc1cnc2[nH]cc(Cc3ccc(NCc4ccc(Cl)cc4)nc3)c2c1 [P-0257, 3-[6-(4-Chloro-benzylamino)-pyridin-3-ylmethyl]-1H-pyrrolo[2,3-b]pyridine-5-carbonitrile]	< 1000
CCOc1ccccc1CNc1ccc(Cc2c[nH]c3ncccc23)cn1 [P-0288, (2-Ethoxy-benzyl)-[5-(1H-pyrrolo[2,3-b]pyridin-3-ylmethyl)-pyridin-2-yl]-amine]	< 1000
Fc1ccc(CNc2ccc(Cc3c[nH]c4ncccc34)cn2)c(F)c1 [P-0212, (2,4-Difluoro-benzyl)-[5-(1H-pyrrolo[2,3-b]pyridin-3-ylmethyl)-pyridin-2-yl]-amine]	< 1000
Fc1ccc(F)c(CNc2ccc(Cc3c[nH]c4ncc(F)cc34)cn2)c1 [P-0329, (2,5-Difluoro-benzyl)-[5-(5-fluoro-1H-pyrrolo[2,3-b]pyridin-3-ylmethyl)-pyridin-2-yl]-amine]	< 1000
CS(=O)(=O)c1ccc(CNc2ccc(Cc3c[nH]c4ncccc34)cn2)c(Cl)c1 [P-0387, (2-Chloro-4-methanesulfonyl-benzyl)-[5-(1H-pyrrolo[2,3-b]pyridin-3-ylmethyl)-pyridin-2-yl]-amine]	< 1000
FC(F)(F)c1ccccc1CNc1ccc(Cc2c[nH]c3ncc(Cl)cc23)cn1 [P-0275, [5-(5-Chloro-1H-pyrrolo[2,3-b]pyridin-3-ylmethyl)-pyridin-2-yl]-(2-trifluoromethyl-benzyl)-amine]	< 1000
COc1ncccc1CNc1ccc(Cc2c[nH]c3ncc(Cl)cc23)cn1 [P-0286, [5-(5-Chloro-1H-pyrrolo[2,3-b]pyridin-3-ylmethyl)-pyridin-2-yl]-(2-methoxy-pyridin-3-ylmethyl)-amine]	< 1000
O=C(Nc1ccc(Cc2c[nH]c3ncccc23)cn1)c1cccs1 [P-0103, Thiophene-2-carboxylic acid [5-(1H-pyrrolo[2,3-b]pyridin-3-ylmethyl)-pyridin-2-yl]-amide]	< 1000
Fc1ccc(C(F)(F)F)cc1CNc1ncc(Cc2c[nH]c3ncccc23)cn1 [P-0291, (2-Fluoro-5-trifluoromethyl-benzyl)-[5-(1H-pyrrolo[2,3-b]pyridin-3-ylmethyl)-pyrimidin-2-yl]-amine]	< 1000
COc1cccc(CNc2ccc(Cc3c[nH]c4ncccc34)cn2)c1F [P-0352, (2-Fluoro-3-methoxy-benzyl)-[5-(1H-pyrrolo[2,3-b]pyridin-3-ylmethyl)-pyridin-2-yl]-amine]	< 1000
COc1cnc2[nH]cc(Cc3ccc(NCc4ccccc4Cl)nc3)c2c1 [P-0328, (2-Chloro-benzyl)-[5-(5-methoxy-1H-pyrrolo[2,3-b]pyridin-3-ylmethyl)-pyridin-2-yl]-amine]	< 1000
Fc1cc(CNc2ncc(Cc3c[nH]c4ncccc34)cn2)cc(C(F)(F)F)c1 [P-0294, (3-Fluoro-5-trifluoromethyl-benzyl)-[5-(1H-pyrrolo[2,3-b]pyridin-3-ylmethyl)-pyrimidin-2-yl]-amine]	< 1000
Fc1nc(NCc2ccc(C(F)(F)F)nc2)ccc1Cc1c[nH]c2ncccc12 [P-0188, [6-Fluoro-5-(1H-pyrrolo[2,3-b]pyridin-3-ylmethyl)-pyridin-2-yl]-(6-trifluoromethyl-pyridin-3-ylmethyl)-amine]	< 1000
c1cc(CNc2ccc(Cc3c[nH]c4ncccc34)cn2)nc(N2CCOCC2)c1 [P-0228, (6-Morpholin-4-yl-pyridin-2-ylmethyl)-[5-(1H-pyrrolo[2,3-b]pyridin-3-ylmethyl)-pyridin-2-yl]-amine]	< 1000
FC(F)(F)Oc1ccccc1CNc1ccc(Cc2c[nH]c3ncccc23)cn1 [P-0322, [5-(1H-Pyrrolo[2,3-b]pyridin-3-ylmethyl)-pyridin-2-yl]-(2-trifluoromethoxy-benzyl)-amine]	< 1000
COc1cc(C(=O)Nc2ccc(Cc3c[nH]c4ncccc34)cn2)ccn1 [P-0104, 2-Methoxy-N-[5-(1H-pyrrolo[2,3-b]pyridin-3-ylmethyl)-pyridin-2-yl]-isonicotinamide]	< 1000
